Laboratory results from PubChem BioAssay (NCI).
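All cell lines were grown in 96-well plates and treated with compound for 48 hours. The concentration for 50% growth inhibition is given as GI50. At the TGI there is no net growth.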

Columns and labels:
Experiment in all cases: NCI-60 cell line screen, 48 h
UO-31 renal = system: UO-31 renal
IGROV1 ovarian = system: IGROV1 ovarian
COLO 205 colon = system: COLO 205 colon
HOP-92 NSCLC = system: HOP-92 NSCLC
SN12C renal = system: SN12C renal
OVCAR-4 ovarian = system: OVCAR-4 ovarian
M14 melanoma = system: M14 melanoma
SR leukemia = system: SR leukemia
OVCAR-8 ovarian = system: OVCAR-8 ovarian
OVCAR-3 ovarian = system: OVCAR-3 ovarian
KM12 colon = system: KM12 colon
SK-MEL-2 melanoma = system: SK-MEL-2 melanoma
K-562 leukemia = system: K-562 leukemia
NCI-H522 lung = system: NCI-H522 lung
SNB-19 CNS = system: SNB-19 CNS
HOP-62 NSCLC = system: HOP-62 NSCLC
A549 NSCLC = system: A549 NSCLC
NCI-H460 lung = system: NCI-H460 lung
NCI-H226 lung = system: NCI-H226 lung

Compound	TGI (UO-31 renal)	TGI (IGROV1 ovarian)	TGI (COLO 205 colon)	TGI (HOP-92 NSCLC)	TGI (SN12C renal)	TGI (OVCAR-4 ovarian)	TGI (M14 melanoma)	TGI (SR leukemia)	TGI (OVCAR-8 ovarian)	TGI (OVCAR-3 ovarian)	TGI (KM12 colon)	TGI (SK-MEL-2 melanoma)	TGI (K-562 leukemia)	TGI (NCI-H522 lung)	TGI (SNB-19 CNS)	TGI (HOP-62 NSCLC)	TGI (A549 NSCLC)	TGI (NCI-H460 lung)	TGI (NCI-H226 lung)	GI50 (K-562 leukemia)
CCC1NC(N=Nc2ccc([N+](=O)[O-])cc2)(P(=O)(OC(C)C)OC(C)C)OC1=O (centres undefined)	> 100 µM	> 100 µM	> 100 µM	> 100 µM	> 100 µM	> 100 µM	> 100 µM	> 100 µM	> 100 µM	> 100 µM	> 100 µM	> 100 µM	> 100 µM	> 100 µM	> 100 µM	> 100 µM	> 100 µM			
CCn1cnnc1-c1nsc2ccccc12	> 100 µM	> 100 µM	> 100 µM	> 100 µM	> 100 µM	> 100 µM	> 100 µM	> 100 µM	> 100 µM	> 100 µM	> 100 µM	> 100 µM	> 100 µM		> 100 µM	> 100 µM	> 100 µM	> 100 µM		
CN(Cc1cnc2c(N)nc(N)nc2n1)c1ccc(Cl)cc1	> 100 µM	> 100 µM	> 100 µM		> 100 µM		> 100 µM	> 100 µM	> 100 µM	> 100 µM	> 100 µM	> 100 µM	> 100 µM		> 100 µM	> 100 µM		> 100 µM	32.5 µM	
CC(C)NC(=O)OCc1c2c(n(C)c1COC(=O)NC(C)C)-c1ccccc1CC2	32.4 µM	29.2 µM	21.6 µM	22.2 µM	27.4 µM	34.5 µM			31.1 µM	27.3 µM	29 µM	29.5 µM	> 38.5 µM	18.1 µM	35.2 µM	18.6 µM	89.9 µM	28.8 µM	31.4 µM	
Cc1ccc2c(=O)c3ccccc3sc2c1	> 100 µM	> 100 µM	> 100 µM		> 100 µM	> 100 µM	> 100 µM	> 100 µM	> 100 µM	> 100 µM	> 100 µM		> 100 µM	> 100 µM	> 100 µM	> 100 µM	> 100 µM	> 100 µM	> 100 µM	
C[C@@H]1CC[C@@]2(OC1)O[C@H]1C[C@H]3[C@@H]4CC[C@H]5C[C@@H](OC6OC(CO)C(OC7OC(CO)C(O)C(OC8OCC(O)C(O)C8O)C7OC7OC(CO)C(O)C(O)C7O)C(O)C6O)[C@H](O)C[C@]5(C)[C@H]4CC[C@]3(C)[C@H]1[C@@H]2C (some centres undefined)	17.8 µM	8.31 µM	22 µM	66.5 µM		4.62 µM	32 µM	> 33.8 µM	9.64 µM	9.56 µM	23.6 µM	24.8 µM	> 100 µM	2.05 µM	27.1 µM	2.94 µM	10.9 µM	4.17 µM	23.9 µM	
O=C(O)C1CCCCN1c1ccccc1[N+](=O)[O-] (centres undefined)	> 100 µM	> 100 µM		> 100 µM	> 100 µM	> 100 µM	> 100 µM	> 100 µM	> 100 µM	> 100 µM		> 100 µM	> 100 µM	> 100 µM	> 100 µM	> 100 µM	> 100 µM	> 100 µM	> 100 µM	
O=C(N/N=C/c1cc(Br)cc(Br)c1[O-])c1ccccc1O.O=C(N/N=C/c1cc(Br)cc(Br)c1[O-])c1ccccc1O.[Co+2]	10.6 µM	8.44 µM	20.4 µM	6.13 µM		3.15 µM	2.73 µM	3.29 µM	12.5 µM	3.6 µM	21.1 µM	5.4 µM	16.2 µM	2.49 µM	28.4 µM	10.3 µM	12.6 µM	20 µM	7.39 µM	0.643 µM
O=c1oc2cc(O)ccc2c(O)c1Cc1c(O)c2ccc(O)cc2oc1=O	> 100 µM	> 100 µM	> 100 µM	> 100 µM	> 100 µM	> 100 µM	> 100 µM	> 100 µM	> 100 µM	> 100 µM		> 100 µM	> 100 µM		> 100 µM	> 100 µM	> 100 µM	> 100 µM	> 100 µM	
